The results in this text go back to publication PMC3679022, “A Cancer Specific Cell-Penetrating Peptide, BR2, for the Efficient Delivery of an scFv into Cancer Cells” (PLoS ONE, 2013).

The test system of data set [1] is human erythrocytes. The data set is classed as cell-based. The note with it: 25 µM, pH 7.4. As to the method:
Hemolytic activity was assayed as described by Aboudy et al. with slight modifications; 3 ml of freshly prepared human erythrocytes was washed with isotonic PBS, pH 7.4, until the color of the supernatant turned clear. The washed erythrocytes were then diluted to a final volume of 20 ml with the same buffer. Peptide samples (10 µl), serially diluted in PBS, were added to 190 µl of the cell suspension in microcentrifuge tubes. Following gentle mixing, the tubes were incubated at 37°C for 30 min and then centrifuged at 4,000×g for 5 min. The supernatant (100 µl) was removed to a new tube and the absorbance at 567 nm was determined. The relative optical density, as compared with that of the cell suspension treated with 0.2% Triton X-100, was defined as percentage of hemolysis. The hemolysis percentage was calculated using the following equation: percentage hemolysis = [(Abs 567 nm in the peptide solution – Abs 567 nm in PBS)/(Abs 567 nm in 0.2% Triton X-100 – Abs 567 nm in PBS)]×100.
(§1) (B,C) In vitro cytotoxicity of peptides.

Data set [2] concerns normal cells (HaCat, BJ and NIH 3T3). In words: Confocal laser scanning microscopy of FITC-labeled peptide uptake, normal cells. The data set is classed as cell-based, human, mouse. The note with it: FITC-labeled peptide 5 µM, 30 min, 37°C, live unfixed cells. How it is done:
(§2) To investigate the cell-penetrating ability and the intracellular distribution of the internalized peptides, live confocal microscopy was performed on three cancer lines (HeLa, HCT116 and B16/F10) and three normal cell lines (HaCat, BJ and NIH 3T3). Briefly, cells (2×10^5) were plated on a glass coverslip placed in a 6-well plate, grown overnight, and then incubated with FITC-labeled peptides (5 µM for each cell line) for 30 min. The cells were then rinsed three times with phosphate buffered saline (PBS, pH 7.4), and mounted on microscope slides with fluorescence mounting solution (Dako Corp, Carpinteria, CA). Colocalization of BR2 with lysosomes was observed by using LysoTracker Red DND-99 (Molecular Probe, Eugene, OR). To avoid the effects of fixation artifacts, involving both methanol and paraformaldehyde, cells were not fixed, [27]. The distribution of FITC-labeled peptides was analyzed using a confocal scanning laser Zeiss LSM 510 microscope (Jena, Germany) equipped with a 40× and 20× objective. Fluorophores were excited with an argon laser (488 nm) for FITC and a HeNe laser (543 nm) for LysoTracker Red.
as §1

Data set [3] relates to cancer cells (HeLa, HCT116 and B16/F10). The data set is described as follows: Confocal laser scanning microscopy of FITC-labeled peptide uptake, cancer cells. The format is cell-based, human, mouse. The following applies: FITC-labeled peptide 5 µM, 30 min, 37°C, live unfixed cells. As to the method: as §2, §1
Data set [4] deals with HCT116 cells (K-ras mutated cells). The data set is described as follows: Cell proliferation assay (MTT). Also noted: dose or concentration left out as unconfirmed. The data set is classed as cell-based, human. The following applies: same concentrations as fusion proteins (Fig. S4:), 24 h. How it is done:
To assess the anti-proliferative activity of peptides and anti-Ras scFv fusion proteins, HCT116 cells (K-ras mutated cells) were seeded in 96-well plates at a density of 2×10^4 cells/well in 100 µL of DMEM supplemented with 10% FBS and cultured for 24 h at 37°C. […] Cell viability was measured with the 3-(4,5-dimethylthiazol-2-yl)-2,5-diphenyl tetrazolium bromide (MTT) assay using the CellTiter 96® Non-radioactive Cell Proliferation assay kit (Promega, Madison, WI) according to the manufacturer’s instructions. The absorbance of the solution was measured at 570 nm using a Microplate Reader (Bio-Rad). Cell viability was expressed as the percentage of viable cells treated with scFv or peptide-scFv fusion proteins compared to the PBS-treated control (100%). All experiments were done in triplicate.
Figure 4 Intracellular uptake of peptides and anti-Ras scFv fusion proteins and their anti-proliferative activity. […] (B) Protein uptake was analyzed by Western blotting of fractionated lysates from HCT116 cells treated with PBS, anti-Ras scFv, BR2- or Tat-scFv fusion protein (each, 2 µM) at 37°C for 2 h. […] Cell proliferation was determined using the MTT assay. […]
HCT116 cells were seeded in 96-well plates at a density of 2×10^4 cells/well in 100 μl of DMEM supplemented with 10% FBS and cultured for 24 h at 37°C. […] The absorbance of the solution was measured at 570 nm using a Microplate Reader (Bio-Rad). […]

The subject of data set [5] is HeLa cells. The format is cell-based, human. The note with it: FACS. As to the method: To evaluate the internalization of FITC-labeled peptides, HeLa cells were seeded onto 12-well plates at a density of 2×10^5 cells per well and incubated for 24 h. FITC-labeled peptides, at various concentrations ranging from […], were then incubated with the cells for 30 min at 37°C. To compare the cellular uptake of peptides, cancer and normal cells were treated with FITC-labeled peptides (each, 10 µM) and incubated for 30 min at 37°C. Following the incubation, cells were washed three times with ice-cold PBS to remove excess extracellular complexes. Next, the cells were treated with trypsin (1 mg/ml) for 10 min to remove any remaining peptides bound to the cell surface. After trypsinization, the cells were collected by centrifugation (1,000×g for 5 min), resuspended with 500 µl ice-cold 2% FBS/PBS containing propidium iodide (PI), and then immediately analyzed (10,000 events/sample) by fluorescence activated cell sorting (FACS).
To understand further the cell-penetrating mechanism of peptides, the effects of temperature and metabolic inhibitors were examined. To elucidate the temperature dependency, HeLa cells were incubated at 4°C for 30 min prior to the addition of the peptides. Next, cells were treated with FITC-labeled peptides (each, 5 µM) at 4°C for 30 min. For the energy-depletion study, HeLa cells were preincubated with sodium azide (NaN3, 10 mM) at 37°C for 1 h and then incubated with FITC-labeled peptides (each, 5 µM) at 37°C for 30 min.
To study the role of endocytosis in peptide uptake, cells were pretreated with several endocytosis inhibitors at 37°C for 1 h: (i) amiloride (5 mM), which is known to block macropinocytosis by inhibiting a sodium channel; (ii) nocodazole (100 ng/ml), which inhibits the clathrin-mediated pathway; and (iii) methyl-ß-cyclodextrin (MßCD, 5 mM), which inhibits lipid raft-mediated processes by depleting cholesterol from the plasma membrane. All inhibitors were purchased from Sigma (St. Louis, MO).
To examine the effects of negatively charged components on the cell surface for peptide internalization, HeLa cells were pretreated with gangliosides (monosialoganglioside GM3 from canine blood), heparin sulfate, or sialic acid (Neu5Ac, all from Sigma) (20 µg/ml) for 30 min. For the inhibition of ganglioside biosynthesis, cells were pretreated with D-threo-1-phenyl-2-hexadecanoyl amino-3-morpholino-1-propanol (PPMP, 5 µM) for 48 h.
For all of these experimental conditions, flow cytometry analyses were performed with live cells using a Becton Dickinson FACSCalibur flow cytometer (BD Biosciences, San Diego, CA). In each case, the fluorescence of 10,000 viable cells was acquired. Viable cells were gated based on a sideward and forward scatter. For data analysis, WinMDI software (Joe Trotter, Scripps Research Institute, La Jolla, CA) was used. The statistical significance was evaluated by Student’s t-test at a 95% confidence interval.
Figure 2 BR2 specifically penetrates cancer cell membranes in a concentration-dependent manner. (A) Analysis of the cell-penetrating efficiency of each peptide in different cell types by flow cytometry. FITC-labeled Tat, BR1 and BR2 peptides (10 µM) were added to different cell types: HeLa, HCT116 and B16/F10 cancer cells and HaCat, BJ and NIH 3T3 normal cells. After 30 min of incubation at 37°C, the FITC-positive cells were counted by flow cytometry. Values represent the percentage of fluorescence-positive cells in the total cell population. (B) Quantitative assessment of cell penetration of each peptide by flow cytometry. HeLa cells were incubated with FITC-labeled peptides at concentrations of 1, 2, 5, or 10 µM for 30 min at 37°C. Afterwards the cells were washed with cold PBS and harvested and cellular fluorescence was analyzed by flow cytometry. […] Prior to analysis, extracellular fluorescence of surface bound peptides was removed by a trypsin treatment (1 mg/ml for 10 min). […]

Residues, ends and D or L forms follow the SMILES beside them. Some results are limits rather than exact numbers.

For the compound `CC(C)C[C@H](NC(=O)CNC(=O)[C@H](C)NC(=O)[C@@H](N)CCCNC(=N)N)C(=O)N[C@@H](CCC(N)=O)C(=O)N[C@@H](Cc1ccccc1)C(=O)N1CCC[C@H]1C(=O)N[C@H](C(=O)NCC(=O)N[C@@H](CCCNC(=N)N)C(=O)N[C@@H](CC(C)C)C(=O)N[C@@H](CC(C)C)C(=O)N[C@@H](CCCNC(=N)N)C(=O)N[C@@H](CCCNC(=N)N)C(=O)N[C@@H](CC(C)C)C(=O)N[C@@H](CC(C)C)C(=O)N[C@@H](CCCNC(=N)N)C(=O)N[C@@H](CCCNC(=N)N)C(=O)N[C@@H](CC(C)C)C(=O)N[C@@H](CC(C)C)C(=O)N[C@@H](CCCNC(=N)N)C(=O)O)C(C)C` [BR3, buforin IIb] (H-RAGLQFPVGRLLRRLLRRLLR-OH), the hemolysis in data set [1] is ≥ 5%.

Consider RAGLQFPVGRLLR [BR1], for which the “cellular uptake (confocal microscopy)” value in data set [2] and in data set [3] was “negligible cellular uptake levels” in each case.

For the compound “RKKRRQRRR [Tat, well-known CPP Tat (49–57), reference compound]”, the “anti-proliferative activity of peptide alone” value in data set [4] is recorded as “did not show any detectable inhibitions”. Further, the “decrease of cellular uptake at 4°C compared to 37°C” value in data set [5] (FITC-labeled peptide 5 µM, 30 min at 4°C after preincubation at 4°C) came to 31.6%. The “reduction of uptake by ATP depletion (sodium azide)” value in data set [5] (NaN3 10 mM preincubation 1 h 37°C, then FITC-labeled peptide 5 µM 30 min 37°C) turned out to be 42.5%. Besides, in data set [5] (PPMP 5 µM pretreatment 48 h), the “effect of ganglioside synthesis inhibitor PPMP on peptide uptake” value was “not”. Moreover, the “effect of exogenous gangliosides on peptide penetration” value in data set [5] (gangliosides (GM3) 20 µg/ml, 30 min) is “not affected”. The “effect of exogenous heparin on peptide uptake” value in data set [5] (heparin 20 µg/ml, 30 min) was “severely reduced”. Further, in data set [5] (sialic acid (Neu5Ac) 20 µg/ml, 30 min), the “effect of exogenous sialic acids on peptide penetration” value is listed as “not affected”.
